This passage reports Solubility, degradation during polymerization and antifungal performance results from patent US9220725B2, “Cationic latex as a carrier for bioactive ingredients and methods for making and using the same” (priority 2006, dated 2015).

Series [1] in a line: Solubility of additives used in polymerization. The format is physicochemical.
The nature of series [2]: Stability of additive during polymerization. The format is physicochemical. Conditions: incorporated in relatively high amounts. An excerpt: Ideally, the materials are substantially unreactive during the polymerization conditions, so they are not degraded during polymerization. In some embodiments, low levels of additive might be observed, whether due to degradation, or difficulty in extraction from the polymer latex. In any case, retention of the additive in the latex leads to retention of antifungal properties in the finished paper.
The polymerization temperature was investigated as a potential contributor to degradation, and it was kept as low as was feasible (typically <70° C.). The samples were stripped at the end of polymerization to the desired solids content.

The subject of series [3] is fungal species. Put plainly: ASTM D-3273 on coated paper, increased coating thickness, spores in humidity chamber, 28 days. The format is cell-based. On the procedure:
A second round of testing was performed using an increased coating thickness to ensure full coverage of the paper surface. The second round of testing of the coated paper samples were tested according to ASTM D-3273. In this study, the duration remained the same (28 days), but the fungal species were not directly inoculated on the surface. Rather, they were maintained in the humidity chamber as spores that would then land on the surface of the coated paper as in a real world example. The results of this study are outlined in FIG. 3.

Series [4] has as its system fungal species. Put plainly: 30-III fungal test on 1"X1" chip of dried latex, growth observed after 7 days. The format is cell-based. Conditions: 7 day incubation. The procedure:
The results observed in the G-21 study were also duplicated in a shorter (7 day incubation) fungal study (referred to herein as 30-III).
The 30-III fungal test was based on making a 1″X1″ chip of the dried latex and inoculating the fungal species directly on to the sample and then observing its growth after 7 days. This is not as rigorous a test as the G-21 test, but gave a quick indication of the efficacy of the additives.

Like-named read-outs stand apart in the source and are kept apart here.

Regarding `Cc1ccc(S(=O)(=O)C(I)I)cc1` [Amical AF, Diiodomethyltoluyl sulfone], the Solubility result in series [1] (in monomer where given) was “Limited”. The degradation during polymerization result in series [2] was “degraded”. The values for the antifungal performance result in the series with fungal species [3] and in the series on fungal species [4] were “effective” and “some fungal inhibition”, respectively.
For the compound `[Na+].[O-]c1ccccc1-c1ccccc1` [Microban P2, Sodium orthophenyl phenate], the Solubility entry in series [1] (in water) is recorded as “soluble”.
`CCCC1COC(Cn2cncn2)(c2ccc(Cl)cc2Cl)O1` (centres unmarked) [Microban PZ, Propiconazole]: the Solubility result in series [1] is listed as “Fairly soluble”.
On to `CC(C)(C)C(O)(CCc1ccc(Cl)cc1)Cn1cncn1` (centres unmarked) [Microban TZ, Tebuconazole], for which the Solubility entry in series [1] is “Fairly soluble”.
As to `Oc1cc(Cl)ccc1Oc1ccc(Cl)cc1Cl` [Triclosan, Chlorodiphenyl ether, reference compound], the Solubility entry in series [1] (in monomer where given) is “Solid. Fairly”.
On to Zinc pyrithione [Microban Z01], for which the Solubility result in series [1] (in monomer where given) was “Insoluble in”. The antifungal performance entry in the series on fungal species [3] is “did not perform well”; with fungal species [4], “performed well”.
